# Test results published in patent publication US6022901A, “Administration of resveratrol to prevent or treat restenosis following coronary intervention” (priority 1998, dated 2000).
# System: low-density lipoproteins
# Test: not given
# Details: cited from earlier work
row,Compound,protection of low-density lipoproteins against oxidation
1,"Oc1cc(O)c2c(c1)OC(c1ccc(O)c(O)c1)C(O)C2 (stereo not drawn) [catechin, reference compound]",protect low-density lipoproteins against oxidation
2,OC[C@H]1O[C@@H](Oc2cc(O)cc(/C=C\c3ccc(O)cc3)c2)[C@H](O)[C@@H](O)[C@@H]1O [cis-resveratrol glucoside],protect low-density lipoproteins against oxidation
3,Oc1ccc(/C=C\c2cc(O)cc(O)c2)cc1 [cis-resveratrol],protect low-density lipoproteins against oxidation
4,"Oc1cc(O)c2c(c1)O[C@H](c1ccc(O)c(O)c1)[C@H](O)C2 [epicatechin, reference compound]",protect low-density lipoproteins against oxidation
5,"O=c1c(O)c(-c2ccc(O)c(O)c2)oc2cc(O)cc(O)c12 [quercetin, reference compound]",protect low-density lipoproteins against oxidation
6,"C[C@@H]1O[C@@H](OC[C@H]2O[C@@H](Oc3c(-c4ccc(O)c(O)c4)oc4cc(O)cc(O)c4c3=O)[C@H](O)[C@@H](O)[C@@H]2O)[C@H](O)[C@H](O)[C@H]1O [rutin, reference compound]",protect low-density lipoproteins against oxidation
7,OC[C@H]1O[C@@H](Oc2cc(O)cc(/C=C/c3ccc(O)cc3)c2)[C@H](O)[C@@H](O)[C@@H]1O [trans-resveratrol glucoside],protect low-density lipoproteins against oxidation
8,Oc1ccc(/C=C/c2cc(O)cc(O)c2)cc1 [trans-resveratrol],protect low-density lipoproteins against oxidation

# System: common iliac artery of high cholesteric rabbits
# Test: Restenosis/thrombus model: balloon injury of common iliac artery in high cholesteric rabbits, local administration, angioscopy
# Format: in vivo, rabbit
# Details: after one month; trans-resveratrol + heparin (1:100) compared with heparin only, P<0.05
# Method: The procedure of U.S. Pat. No. 5,595,974 to Tomaru may be used to evaluate the utility of trans-resveratrol in preventing restenosis in high cholestereric rabbits, as follows:
# An injectable trans-resveratrol solution is prepared containing the following components: 10 mg trans-resveratrol; 3 mg chlorobutanol (preservative); 0.1 mg gelatin hydrolyzate (stabilizer); 9 mg sodium chloride (isotonic agent); and distilled water containing 2% dimethyl sulfoxide ("DMSO") for injection (to 1 mL).
# Common iliac arteries of high cholesteric rabbits to which a diet containing 2% of cholesterol is loaded for a month are used as a model for restenosis, wherein the model consists of (1) a heparin group with seven male rabbits and (2) trans-resveratrol solution combined with th seven male rabbits, weighing between 2.5 kg and 3 kg, respectively. […]
# Post-operatively, the percent luminal obstruction (%) of both the control side and the drug administered side are compared by continuing the load of high cholesterol for one month. That is, effects for preventing stenosis by local administration of trans-resveratrol is evaluated by angioscopic visualization after one month from vascular injury to compare the percent luminal obstruction (%) caused by intima pachymenia.
# The percent luminal obstruction (%) is calculated by the following equation: […]
row,Compound,percent luminal obstruction (%)
1,Oc1ccc(/C=C/c2cc(O)cc(O)c2)cc1 [trans-resveratrol],remarkably reduced percent luminal obstruction (%)
